# Test results published in paper PMC6522510 (Nature Communications, 2019).
# Tests used:
# Parameters in all cases: species or system AML cell lines (8); Primary HTS, single concentration about 10 uM, Cell Titer Glo viability; log10 luminescence, per cent inhibition relative to cycloheximide control
# Conditions in all cases: 72 h, relative to cycloheximide control, log10 luminescence; inhibitor
# ML-2 = system: ML-2
# CMK = system: CMK
# M07e = system: M07e
# CHRF288-11 = system: CHRF288-11
# MV4-11 = system: MV4-11
# U937 = system: U937
# CMS = system: CMS
# MOLM-13 = system: MOLM-13
smiles,measurement,setting,value
"N#Cc1cccc(Nc2nccc(-c3cnn4ncccc34)n2)c1 [SJ000573330-1, U19339/96/3]",ML-2 %inh,ML-2,56.71%
same,CMK %inh,CMK,106.6%
same,M07e %inh,M07e,113.8%
same,CHRF288-11 %inh,CHRF288-11,55.56%
same,MV4-11 %inh,MV4-11,85.56%
same,U937 %inh,U937,80.06%
same,CMS %inh,CMS,104.6%
same,MOLM-13 %inh,MOLM-13,98.39%
"Nc1ncnc2occ(-c3ccc(NC(=O)Nc4cc(C(F)(F)F)cc(C(F)(F)F)c4)cc3)c12 [SJ000573331-1, T299/133/15]",ML-2 %inh,ML-2,1.52%
same,CMK %inh,CMK,3.982%
same,M07e %inh,M07e,1.156%
same,CHRF288-11 %inh,CHRF288-11,6.057%
same,MV4-11 %inh,MV4-11,73.61%
same,U937 %inh,U937,4.807%
same,CMS %inh,CMS,4.245%
same,MOLM-13 %inh,MOLM-13,93.65%
"CC(=O)Nc1cccc(C#Cc2cncnc2Nc2ccc(OCc3cccc(F)c3)c(Cl)c2)c1 [SJ000573332-1, U21935/99/1]",ML-2 %inh,ML-2,1.213%
same,CMK %inh,CMK,-0.8317%
same,M07e %inh,M07e,1.101%
same,CHRF288-11 %inh,CHRF288-11,3.642%
same,MV4-11 %inh,MV4-11,0.9824%
same,U937 %inh,U937,4.462%
same,CMS %inh,CMS,0.8612%
same,MOLM-13 %inh,MOLM-13,0.3704%
"CCn1c(-c2nonc2N)nc2c(C#CC(C)(C)O)ncc(OC[C@@H]3CCCN3)c21 [SJ000573333-1, ML205742-149B0]",ML-2 %inh,ML-2,7.469%
same,CMK %inh,CMK,15.2%
same,M07e %inh,M07e,9.925%
same,CHRF288-11 %inh,CHRF288-11,13.49%
same,MV4-11 %inh,MV4-11,16.86%
same,U937 %inh,U937,42.79%
same,CMS %inh,CMS,14%
same,MOLM-13 %inh,MOLM-13,74.82%
"O=C(O[C@H]1CN[C@H](C#Cc2cc3ncnc(Nc4ccc(Cc5ccccc5)cc4)c3s2)C1)N1CCOCC1 [SJ000573334-1, U20046/184/1]",ML-2 %inh,ML-2,11.25%
same,CMK %inh,CMK,86.74%
same,M07e %inh,M07e,4.781%
same,CHRF288-11 %inh,CHRF288-11,4.257%
same,MV4-11 %inh,MV4-11,4.189%
same,U937 %inh,U937,2.636%
same,CMS %inh,CMS,1.486%
same,MOLM-13 %inh,MOLM-13,61.51%
"C[C@@H](Oc1cc(-n2cnc3ccc(OC[C@@H](O)CO)cc32)sc1C(N)=O)c1ccccc1Cl [SJ000573335-1, U22436/41/1]",ML-2 %inh,ML-2,25.64%
same,CMK %inh,CMK,83.74%
same,M07e %inh,M07e,110.3%
same,CHRF288-11 %inh,CHRF288-11,63.27%
same,MV4-11 %inh,MV4-11,65.42%
same,U937 %inh,U937,86.31%
same,CMS %inh,CMS,71.91%
same,MOLM-13 %inh,MOLM-13,82.19%
"Cc1ccc(NC(=O)c2ccnc(N3CCCC3)c2)cc1-c1ccc(C(=O)NCC2CC2)cc1 [SJ000573336-1, U23923/65/8]",ML-2 %inh,ML-2,-2.392%
same,CMK %inh,CMK,0.1294%
same,M07e %inh,M07e,-0.5333%
same,CHRF288-11 %inh,CHRF288-11,-0.1983%
same,MV4-11 %inh,MV4-11,1.019%
same,U937 %inh,U937,0.7829%
same,CMS %inh,CMS,-0.7437%
same,MOLM-13 %inh,MOLM-13,2.702%
"CCCN1CCCC(c2ccc(Nc3nc(Nc4cc(F)ccc4C(N)=O)c4cc[nH]c4n3)c(OC)c2)C1 (centres unmarked) [SJ000573337-1, U23441/128/1]",ML-2 %inh,ML-2,69.05%
same,CMK %inh,CMK,49.26%
same,M07e %inh,M07e,41.75%
same,CHRF288-11 %inh,CHRF288-11,108.4%
same,MV4-11 %inh,MV4-11,85.37%
same,U937 %inh,U937,43.81%
same,CMS %inh,CMS,31.15%
same,MOLM-13 %inh,MOLM-13,102.6%
"CCn1c(-c2nonc2N)nc2c(C#CC(C)(C)O)ncc(OCC3CCNCC3)c21 [SJ000573338-1, N3180-49-A1]",ML-2 %inh,ML-2,1.732%
same,CMK %inh,CMK,1.889%
same,M07e %inh,M07e,-1.564%
same,CHRF288-11 %inh,CHRF288-11,-0.2898%
same,MV4-11 %inh,MV4-11,8.685%
same,U937 %inh,U937,25.28%
same,CMS %inh,CMS,4.398%
same,MOLM-13 %inh,MOLM-13,4.413%
"CCn1c(-c2nonc2N)nc2c(C#CCN)ncc(OCCCN)c21 [SJ000573339-1, N3180-25-A1]",ML-2 %inh,ML-2,0.8489%
same,CMK %inh,CMK,3.187%
same,M07e %inh,M07e,-1.392%
same,CHRF288-11 %inh,CHRF288-11,1.457%
same,MV4-11 %inh,MV4-11,3.433%
same,U937 %inh,U937,1.188%
same,CMS %inh,CMS,4.589%
same,MOLM-13 %inh,MOLM-13,6.465%
